Results on 13 compounds are retold here after US9603862B2, “Activation and activators of SIRT5” (CORNELL UNIVERSITY, priority 2009, dated 2017).

The target in the experiment is T1, SIRT5 (Homo sapiens, UniProt Q9NXA8).
T1 sequence (Q9NXA8 37-310): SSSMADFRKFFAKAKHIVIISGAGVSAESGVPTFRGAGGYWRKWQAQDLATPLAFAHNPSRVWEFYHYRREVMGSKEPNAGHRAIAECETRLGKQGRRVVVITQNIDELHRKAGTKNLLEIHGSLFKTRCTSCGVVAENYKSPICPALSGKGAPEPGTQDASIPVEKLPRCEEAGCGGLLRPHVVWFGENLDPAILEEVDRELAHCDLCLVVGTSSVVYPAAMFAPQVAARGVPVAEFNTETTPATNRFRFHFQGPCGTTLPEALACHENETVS
Kind of experiment: SIRT5 deacetylation activation assay (radiolabelled NAD+, DEAE-Sephadex column, turnover with vs without activator). It counts as biochemical. How it is done: The reactions were processed using DEAE columns. […]
Reactions containing NAD^+ including [2,8A^−3H]-NAD^+, peptide substrate, with or without activator in 100 mM phosphate buffer (pH 7.5) were initiated by addition of SIRT5 enzyme to a concentration of 10 μM. Reactions were incubated at 37° C. for 1 h and quenched by addition of trifluoroacetic acid to pH 2. After centrifugation to remove the precipitates, reactions were loaded onto columns containing pre-equilibrated DEAE-Sephadex (equilibrated with 5 mM ammonium acetate pH 7). The reaction mixture was then eluted with eight fractions of 20 mM ammonium acetate pH 7 and three fractions of 300 mM ammonium acetate pH 7. The radioactivity contained in the eluents was then quantified by scintillation counter. Radiolabelled NAD^+ eluted in the 20 mM washes, while products ADPR and AADPR eluted in the 300 mM fractions. Radioactivity in the remaining NAD^+ fractions and the radioactivity in the product fractions were then converted to a turnover rate (1/s) by adjustment for specific radioactivity and enzyme concentration. The turnovers from the reaction with or without the activators were compared to show the percentage of activation.
Test compounds were assayed against SIRT5 as described in Example 1.

Where [1] appears, read: FIG. 3, varying concentrations of activator, 500 μM NAD+, 500 μM JB12, DEAE columns.
[2] abbreviates: FIG. 3, varying concentrations of activator, 500 μM NAD+, 500 μM JB12, DEAE columns, read-out: Km of activator for activation of SIRT5-catalyzed deacetylation (Michaelis Menten curve fitting).
Setting [3] is: FIG. 4, 500 μM JB12, 500 μM NAD+, 1 mM of activator compound.
Where [4] appears, read: FIG. 4, 500 μM JB12, 500 μM NAD+, 1 mM of activator compound, read-out: Km of activator for activation of SIRT5-catalyzed deacetylation.

Molecules are shown by their SMILES. Where two headings read alike, the source gives them in different places.

For orientation: Km means the concentration of substrate that gives half-maximal velocity.

As for `NC(=O)c1ccc[n+](C2O[C@H](CO)[C@@H](O)[C@H]2Cl)c1` (stereo partly drawn) [ribo-Cl-NR, 1-(2′-deoxy-2′-chloro-ribofuranosyl)-nicotinamide], the “max activation of SIRT5 deacetylation” value under setting [1] was found to be 125%. Besides, the Km under setting [2] was 95 µM.

Consider `NC(=O)c1ccc[n+](C2O[C@H](CO)[C@@H](O)C2(F)F)c1` (stereo partly drawn) [gem-diF-NR, 1-(2′-deoxy-2′,2′-difluoro-ribofuranosyl)-nicotinamide], for which the “max activation of SIRT5 deacetylation” value under setting [1] came to 120%. Moreover, under setting [2], the Km turned out to be 50 µM.

Take `COC(=O)c1ccc[n+]([C@@H]2O[C@H](CO)[C@@H](O)[C@H]2O)c1` [O-methyl NR, methyl nicotinate riboside]: the “max activation of SIRT5 deacetylation” value under setting [3] turned out to be 190%. Further, under setting [4], the Km is 93 µM.

With `COC(=O)c1ccc[n+]([C@@H]2O[C@H](CO)C(O)C2O)c1` (stereo partly drawn), the SIRT5 % activated (at 600 μM test compound) worked out at 80% activated at 600 μM.

`CCOC(=O)c1ccc[n+]([C@@H]2O[C@H](CO)[C@@H](O)[C@H]2O)c1` [O-ethyl NR, ethyl nicotinate riboside]: under setting [3], the “max activation of SIRT5 deacetylation” value is 150%. The Km under setting [4] was 323 µM.

For the compound `NC(=O)c1ccc[n+]([C@@H]2O[C@H](CO)[C@@H](O)[C@H]2O)c1` [NR, nicotinamide riboside], the Emax (FIG. 3, varying concentrations of activator, 500 μM NAD+, 500 μM JB12, DEAE columns, read-out: max activation of SIRT5 deacetylation) turned out to be 200%.

Regarding `CCOC(=O)c1ccc[n+]([C@@H]2O[C@H](CO)C(O)C2O)c1` (stereo partly drawn), the SIRT5 % activated (at 600 μM test compound) worked out at 40% activated at 600 μM.

Under “at 800 μM test compound”, `O=C(O)c1ccc[n+]([C@@H]2O[C@H](CO)C(O)C2O)c1` (stereo partly drawn) yielded an SIRT5 % activated of 60% activated at 800 μM.

On to `COB(OC)c1ccc[n+]([C@H]2CC(O)[C@@H](COP(=O)([O-])O)O2)c1` (stereo partly drawn), for which the SIRT5 % activated (at 160 μM test compound) came to 50% activated at 160 μM.

`O=C([O-])c1ccc[n+]([C@@H]2O[C@H](CO)[C@@H](O)[C@H]2O)c1` [NaR, nicotinic acid riboside]: the “max activation of SIRT5 deacetylation” value under setting [3] was 160%. Also, the Km under setting [4] was found to be 821 µM.

In the case of `NC(=O)c1ccc[n+]([C@@H]2O[C@H](CO)C(O)C2(F)F)c1` (stereo partly drawn), the SIRT5 % activated (at 2.4 mM test compound) is on record as 90% activated at 2.4 mM.

As to `NC(=O)c1ccc[n+]([C@@H]2O[C@H](CO)C(O)C2Cl)c1` (stereo partly drawn), the SIRT5 % activated (at 1 mM test compound) was 75% activated at 1 mM.

Take `NC(=O)c1ccc[n+]([C@@H]2O[C@H](CO)C(O)C2O)c1` (stereo partly drawn): for the setting “at 800 μM test compound”, the SIRT5 % activated came out at 100% activated at 800 μM.
